# pIC50: −log10 of the molar value. Read-outs that look alike come from different tables or passages of the source. Square brackets hold non-standard residues; d marks the D form. Peptide text beside a SMILES is read from it. Ava = NCCCCC(=O)O; Mpa = O=C(O)CCS
# Experiments:
# [1] = biological target: laminin binding to sulfatide; assay: Inhibition of 125I-laminin binding to sulfatide; set-up: species or system mouse; details: Table 2, free peptide
# Experimental: (§1) The peptides were tested as inhibitors of laminin, thrombospondin or apolipoprotein E binding to a heparin-bovine serum albumen conjugate or to a sulfatide in a solid phase assay essentially following the procedure described in Zabrenetzky et al., Cancer Res., Vol. 50, pages 5937-5942 (1990). Sulfatide (0.2 μg/well for thrombospondin binding, 0.6 μg/well for laminin binding) was immobilized in a mixture of 50 ng of phosphatidyl choline, and 30 ng of cholesterol on polyvinyl chloride microtiter plates. Heparin-BSA (0.2 μg/well) was absorbed onto polyvinyl chloride microtiter plate wells by incubation of 50 μl of Dulbecco's PBS for 2 h at 37°. The wells were emptied and filled with 50 mM tris, pH 7.8 containing 150 mM NaCl, 1 mM CaCl2, 0.025% NaN3, and 1% BSA. After 30 minutes, the wells were emptied and 30 μl of various concentrations of potential inhibitory peptides diluted in the same buffer or buffer alone and 30 μl of ^125 I-labeled laminin, thrombospondin or apolipoprotein E (0.2 μg/ml) were added to each well. After 3 hours at 4°, the wells were washed 6 times with 0.15M NaCl, cut from the plate and the bound radioactivity counted. FIGS. 1A-B and 2A-B show the level of thrombospondin binding to sulfatide and heparin-BSA, respectively, in the presence of increasing concetrations of the peptides listed. FIGS. 3 and 4A-B show the level of laminin binding to sulfatide and heparin-BSA, respectively, in the presence of increasing concentrations of the listed peptides.
# [2] = biological target: laminin binding to heparin; assay: Inhibition of 125I-laminin binding to heparin-BSA; set-up: species or system mouse; details: Table 2, free peptide
# Experimental: as §1
# [3] = biological target: thrombospondin binding to sulfatide; assay: Inhibition of 125I-thrombospondin binding to sulfatide; set-up: species or system human; details: for pIC50: Table 1, free peptide
# Experimental: as §1
# [4] = biological target: thrombospondin binding to heparin; assay: Inhibition of 125I-thrombospondin binding to immobilized heparin-BSA; set-up: species or system human; details: for inhibition of thrombospondin binding to heparin, in words: free peptide
# Experimental: as §1
# Microtiter plate wells were coated with heparin-BSA. Heparin-BSA (0.2 μg/well) was adsorbed by incubation in 50 μl of Dulbecco's PBS for 2 h at 370. The wells were emptied, filled with tris-BSA, and incubated for 30 to 60 minutes. The buffer was removed, and labelled thrombospondin was added and incubated in the wells for 3 h at 40. The wells were emptied and washed 4 times with saline. The bottoms of the wells were cut from the plate and counted to quantify thrombospondin binding. Inhibition of thrombospondin binding was determined using peptides diluted in 30 μl of 50 mM tris buffer, pH 7.8, containing 110 mM NaCl, 1 mM CaCl2, 0.025% NaN3, and 1% BSA or buffer alone and 30 μl of ^125 I-labeled TSP (0.2 μg/ml).
# [5] = biological target: basic fibroblast growth factor (FGF-2) binding to heparin; assay: Inhibition of 125I-bFGF binding to heparin-BSA conjugate; details: retro-inverso peptides; read-out: IC50 for Inhibition of Binding
# Experimental: Binding of ^125 I-bFGF to heparin was determined using an immobilized heparin-BSA conjugate as previously described (Guo, et al. (1992) Proc. Nat'l Acad. Sci. 89:3040-3044). ^125 I-bFGF, prepared as described by Neufeld, et al, (1985), J. Biol. Chem. 260:13860-13868, was added described above, and incubated for 2 hours at 25° C. Bound radioactivity was determined after washing and cutting the wells from the plate. FIGS. 40A, B and C show the inhibition of ^125 I-bFGF binding to heparin by a number of TSP peptide analogs.
# [6] = Table 1, free peptide, read-out: IC50 Heparin Binding, inhibition of 125I-thrombospondin binding
# [7] = retro-inverso peptides, free, read-out: IC50 Inhibitory Activity, Free Peptide
SMILES,pIC50 [1],pIC50 [2],pIC50 [3],"pIC50 [4, 6]","inhibition of thrombospondin binding to heparin, in words [4]",fold less active than CSVTCG ([3]; thrombospondin binding to sulfatide),pIC50 [5],"pIC50 [4, 7]"
"CC(C)[C@H](N)C(=O)N[C@H](C(=O)N[C@@H](CS)C(=O)NCC(=O)O)[C@@H](C)O [Peptide 203, VTCG] (H-VTCG-OH)",< 3.70,< 3.70,< 3.70,< 3.70,inactive,–,–,–
"CC(C)[C@H](N)C(=O)N[C@H](C(=O)N[C@@H](CS)C(=O)NCC(=O)NCC(=O)NCC(=O)N[C@H](C(=O)N[C@@H](CCC(N)=O)C(=O)N[C@@H](CCCCN)C(=O)N[C@@H](CCCNC(=N)N)C(=O)O)C(C)C)[C@@H](C)O [Peptide 204, VTCGGGVQKR] (H-VTCGGGVQKR-OH)",< 3.70,< 3.70,< 3.70,< 3.70,–,–,–,–
"CC[C@H](C)[C@H](NC(=O)[C@@H](NC(=O)CNC(=O)[C@H](CC(=O)O)NC(=O)CNC(=O)[C@H](CS)NC(=O)[C@@H](NC(=O)[C@@H](N)C(C)C)[C@@H](C)O)C(C)C)C(=O)N[C@H](C(=O)N[C@@H](CCCNC(=N)N)C(=O)O)[C@@H](C)O [Peptide 205, VTCGDGVITR] (H-VTCGDGVITR-OH)",< 3.70,< 3.70,< 3.70,< 3.70,–,–,–,–
"CC[C@H](C)[C@H](NC(=O)CNC(=O)[C@H](CC(N)=O)NC(=O)CNC(=O)[C@H](CS)NC(=O)[C@H](CO)NC(=O)[C@@H](N)[C@@H](C)O)C(=O)N[C@@H](CCC(N)=O)C(=O)N[C@@H](CCC(N)=O)C(=O)N[C@@H](CCCNC(=N)N)C(=O)O [Peptide 206, TSCGNGIQQR] (H-TSCGNGIQQR-OH)",< 3.70,< 3.70,< 3.70,< 3.70,–,–,–,–
"CC(C)[C@H](NC(=O)[C@H](CO)NC(=O)[C@@H](N)CS)C(=O)N[C@H](C(=O)O)[C@@H](C)O [Peptide 234, CSVT] (H-CSVT-OH)",< 3.70,< 3.70,< 3.70,< 3.70,inactive,–,–,–
"CC(C)[C@H](NC(=O)[C@H](CO)NC(=O)[C@@H](N)CO)C(=O)N[C@H](C(=O)O)[C@@H](C)O [Peptide 235, SSVT] (H-SSVT-OH)",< 3.70,< 3.70,< 3.70,< 3.70,–,–,–,–
"CC(C)[C@H](NC(=O)[C@H](CO)NC(=O)[C@H](C)N)C(=O)N[C@H](C(=O)O)[C@@H](C)O [Peptide 236, ASVT] (H-ASVT-OH)",< 3.70,< 3.70,< 3.70,< 3.70,–,–,–,–
"CC(C)[C@H](NC(=O)[C@H](CO)NC(=O)[C@@H](N)CO)C(=O)N[C@H](C(=O)N[C@@H](CS)C(=O)NCC(=O)O)[C@@H](C)O [Peptide 237, SSVTCG] (H-SSVTCG-OH)",4.07,4.00,4.52,4.24,very weak inhibitor,2 fold,–,–
"CC(C)[C@H](NC(=O)[C@H](CO)NC(=O)[C@H](CS)NC(=O)[C@H](CO)NC(=O)[C@@H](N)CO)C(=O)N[C@H](C(=O)O)[C@@H](C)O [Peptide 238, SSCSVT] (H-SSCSVT-OH)",< 3.70,< 3.70,< 4.00,4.07,weak inhibition of thrombospondin binding,–,–,–
"CC(C)C[C@H](NC(=O)[C@H](CCCNC(=N)N)NC(=O)[C@H](CO)NC(=O)[C@H](CCCNC(=N)N)NC(=O)[C@H](CCCCN)NC(=O)[C@H](CCC(N)=O)NC(=O)[C@@H](NC(=O)CNC(=O)CNC(=O)CNC(=O)[C@H](CS)NC(=O)[C@@H](NC(=O)[C@@H](N)C(C)C)[C@@H](C)O)C(C)C)C(=O)O [Peptide 245, VTCGGGVQKRSRL] (H-VTCGGGVQKRSRL-OH)",< 3.70,~3.70,< 3.70,< 3.70,inactive,–,–,–
"CC(=O)N[C@H](CS)C(=O)N[C@H](CO)C(=O)N[C@H](CO)C(=O)N[C@H](Cc1c[nH]c2ccccc12)C(=O)N1CCC[C@@H]1C(=O)N[C@H](CO)C(=O)N[C@H](Cc1c[nH]c2ccccc12)C(=O)N[C@H](Cc1c[nH]cn1)C(=O)N[C@H](CO)C(=O)N[C@H](Cc1c[nH]c2ccccc12)C(=O)NCC(=O)NCC(=O)N[C@H](C)C(=O)N[C@H](C)C(=O)N[C@H](CCCCN)C(=O)N[C@H](C)C(=O)N[C@H](CCCNC(=N)N)C(=O)N[C@H](CCCCN)C(N)=O [Peptide 473, ri-amKRAKAAGGWSHWSPWSSCac] (Ac-[dC][dS][dS][dW][dP][dS][dW][dH][dS][dW]GG[dA][dA][dK][dA][dR][dK]-NH2)",–,–,–,–,–,–,5.72,6.82
"CC(=O)N[C@H](C)C(=O)N[C@H](C)C(=O)N[C@H](Cc1c[nH]c2ccccc12)C(=O)N[C@H](Cc1c[nH]cn1)C(=O)N[C@H](CO)C(=O)N[C@H](Cc1c[nH]c2ccccc12)C(=O)NCC(=O)N[C@H](C)C(=O)N[C@H](CCC(N)=O)C(=O)N[C@H](CCCCN)C(=O)N[C@H](C)C(=O)N[C@H](CCCNC(=N)N)C(=O)N[C@H](CCCCN)C(N)=O [Peptide 529, ri-amKRAKQAGWSHWAAac] (Ac-[dA][dA][dW][dH][dS][dW]G[dA][dQ][dK][dA][dR][dK]-NH2)",–,–,–,–,–,–,6.43,–
"CC(=O)N[C@H](C)C(=O)N[C@H](C)C(=O)N[C@H](Cc1c[nH]c2ccccc12)C(=O)N[C@H](Cc1c[nH]cn1)C(=O)N[C@H](CO)C(=O)N[C@H](Cc1c[nH]c2ccccc12)C(=O)NCC(=O)N[C@H](C)C(=O)N[C@H](CCC(N)=O)C(=O)N[C@H](CCCCN)C(=O)N[C@H](Cc1ccccc1)C(=O)N[C@H](CCCNC(=N)N)C(=O)N[C@H](CCCCN)C(N)=O [Peptide 530, ri-amKRFKQAGWSHWAAac] (Ac-[dA][dA][dW][dH][dS][dW]G[dA][dQ][dK][dF][dR][dK]-NH2)",–,–,–,–,–,–,6.19,–
"CC(=O)N[C@H](C)C(=O)N[C@H](C)C(=O)N[C@H](Cc1c[nH]c2ccccc12)C(=O)N[C@H](Cc1c[nH]cn1)C(=O)N[C@H](CO)C(=O)N[C@H](Cc1c[nH]c2ccccc12)C(=O)NCC(=O)N[C@H](C)C(=O)N[C@H](CCC(N)=O)C(=O)N[C@H](CCCNC(=N)N)C(=O)N[C@H](C)C(=O)N[C@H](CCCNC(=N)N)C(=O)N[C@H](CCCCN)C(N)=O [Peptide 536, ri-amKRARQAGWSHWAAac] (Ac-[dA][dA][dW][dH][dS][dW]G[dA][dQ][dR][dA][dR][dK]-NH2)",–,–,–,–,–,–,6.02,–
"CC(=O)N[C@H](C)C(=O)N[C@H](C)C(=O)N[C@H](Cc1c[nH]c2ccccc12)C(=O)N[C@H](Cc1c[nH]cn1)C(=O)N[C@H](CO)C(=O)N[C@H](Cc1c[nH]c2ccccc12)C(=O)NCC(=O)N[C@H](C)C(=O)N[C@H](CCC(N)=O)C(=O)N[C@H](CCCCN)C(=O)N[C@H](C)C(=O)N[C@H](CCCCN)C(=O)N[C@H](CCCCN)C(N)=O [Peptide 537, ri-amKKAKQAGWSHWAAac] (Ac-[dA][dA][dW][dH][dS][dW]G[dA][dQ][dK][dA][dK][dK]-NH2)",–,–,–,–,–,–,7.00,–
C[C@@H](NC(=O)CCS)C(=O)N[C@H](C)C(=O)N[C@H](Cc1c[nH]c2ccccc12)C(=O)N[C@H](Cc1c[nH]cn1)C(=O)N[C@H](CO)C(=O)N[C@H](Cc1c[nH]c2ccccc12)C(=O)NCCCCC(=O)N[C@H](C)C(=O)N[C@H](CCC(N)=O)C(=O)N[C@H](CCCCN)C(=O)N[C@H](C)C(=O)N[C@H](CCCNC(=N)N)C(=O)N[C@H](CCCCN)C(N)=O [ri-amKRAKQUWSHWAAtp] ([Mpa][dA][dA][dW][dH][dS][dW][Ava][dA][dQ][dK][dA][dR][dK]-NH2),–,–,–,–,–,–,–,7.34

# Source: US5770563A, “Heparin- and sulfatide binding peptides from the type I repeats of human thrombospondin and conjugates thereof” (The United States of America as represented by the …, priority 1995, dated 1998)
